Reference: paper PMC12064818, “A general assay platform to study protein pharmacology using ligand-dependent structural dynamics” (Nature Communications, 2025)

Molecular target: T1, Nano luciferase (NLuc) (Oplophorus gracilirostris, UniProt Q9GV45, A31E/A60N/A81I/F95D/I117V/K70R/L54V/L99Q/M102K/N193R/P142E/Q151K/Q38R/Q45L/V71I/Y165I)
T1 construct: His tag (inferred from IMAC purification); made in house; host or cells: E. coli
Experiment: Thermal shift profiles (Thermofluor assay), NLuc
Format: binding
Parameters: unit of the concentration uncertain
Conditions: compound 100 (unit uncertain); for Thermofluor NLuc, ATP: ATP (2 mM)
Procedure: Thermal stabilization of proteins in the presence of the ligands were determined using Thermofluor technique. MicroAmp optical 384-well plates (Applied Biosystems by Life Technologies), ViiA 7 real-time PCR instrument (Applied Biosystems by Life Technologies) and SYPRO Orange (Life Technologies) were used to test the samples. […]. Proteins were added to the 384-well plate first followed by the compounds. Samples were incubated for 10 mins at room temperature and protected from light. SYPRO Orange dye was diluted to 50x from 5000x stock in a PBS buffer, and 4 µL dye was added to the each well using a multi-channel pipette. The plate was sealed with a MicroAmp optical adhesive film, centrifuged at 1500 RPM for 2 min, and then loaded onto the ViiA 7 real–time PCR instrument for fluorescence intensity measurements upon heating the sample from 25 to 95 °C at 1 °C/min increments. Data was exported to excel, fluorescence intensity data and its first derivative were normalized and plotted using GraphPad Prism to determine Tm. See Supplementary Table 3 for additional details.
Supplementary Figure 6. Comparison of SDR and Thermofluor analysis of […]
Temperature °C Temperature °C […]
Supplementary Table 3. Protocol for Thermofluor assay
Supplementary Table 3: Protocol for Therm ofluor assay
Sequence Param eter Value Description […]
3 Incubation 10 m ins Room tem perature, protected from light
4 Dye 10X Sypro Orange dye in PBS added to the sam ple
5 Centrifugation 2 m in Centrifuge for 2 m in at 1500 RPM at RT
6 Read ViiA7 Read the therm al unfolding of the protein with ViiA7 real-tim e PCR system
4 Prepare 50X dye in PBS: 1 μL Sypro Orange 5000X (Life Technologies), 99 μL ddH2O. Add 4 μL to each well Read the m elting tem perature from 25 to 95 °C using ViiA 7 real tim e PCR instrum ent by following the below instructions Perform therm al denaturation in 384-well assay plate
(i) Place the assay plate into the Applied Biosystem s ViiA7 real-tim e PCR instrum ent and open the ViiA7 RUO software.
Under Experim ental Properties, select the following param eters: Set up: […] (20 μl), Experim ent type: MELT CURVE, Reagents used to detect target sequence: OTHER, Ram p Speed: […]
(ii) Select the Define tab on the left, then select the following param eters: Target nam e: TARGET 1, Reporter: ROX, 6 Quencher: NONE, Passive Reference: NONE
(iii) Select the Assign tab on the left, then perform the following actions: Highlight all 384 wells in the assay plate and check the box next to ‘Target 1’ on the top left of the plate layout. Note: check the ‘Sam ple’ box on the lower left.
(iv) Select the Run Method tab on the left, then m ake the following changes to the default Melt Curve profile: Delete Step 2 of the default cycle, change run m ethod to “Step and Hold” with a 1:00 tim e, set the following tem peratures: an initial 2:00 hold at 25 °C (4 °C), ram ping up in increm ents of 1 ° C to a final tem perature of 95 °C (with a 2:00 hold), click on all three cam eras to activate fluorescence detection throughout the experim ent, and Select total volum e per well of 20 μl
(v) Click on the RUN tab to the left to initiate therm al denaturation.

T1 sequence (Q9GV45 other isoform, or with tags, fused parts or gaps with the stated changes): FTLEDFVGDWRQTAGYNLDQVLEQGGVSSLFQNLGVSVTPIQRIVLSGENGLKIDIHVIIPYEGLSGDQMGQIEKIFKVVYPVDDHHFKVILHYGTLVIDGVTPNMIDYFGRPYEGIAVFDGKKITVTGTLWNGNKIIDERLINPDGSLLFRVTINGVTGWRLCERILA

CC(CNC(=O)C1CCN(C(=O)c2ncn3c2COC(c2ccccc2)C3)CC1)c1ccccc1 (stereo not drawn) [NCGC 00449795]
Thermofluor NLuc, No ATP (20.000 °C): 1
Thermofluor NLuc, ATP (20.000 °C): 0.97
Thermofluor NLuc, No ATP (20.993 °C): 0.711
Thermofluor NLuc, ATP (20.993 °C): 0.992
Thermofluor NLuc, No ATP (21.987 °C): 0.647
Thermofluor NLuc, ATP (21.987 °C): 1
Thermofluor NLuc, No ATP (22.980 °C): 0.606
Thermofluor NLuc, ATP (22.980 °C): 0.993
Thermofluor NLuc, No ATP (23.974 °C): 0.589
Thermofluor NLuc, ATP (23.974 °C): 0.974
Thermofluor NLuc, No ATP (24.967 °C): 0.561
Thermofluor NLuc, ATP (24.967 °C): 0.95
Thermofluor NLuc, No ATP (25.960 °C): 0.532
Thermofluor NLuc, ATP (25.960 °C): 0.929
Thermofluor NLuc, No ATP (26.954 °C): 0.532
Thermofluor NLuc, ATP (26.954 °C): 0.916
Thermofluor NLuc, No ATP (27.947 °C): 0.499
Thermofluor NLuc, ATP (27.947 °C): 0.908
Thermofluor NLuc, No ATP (28.940 °C): 0.462
Thermofluor NLuc, ATP (28.940 °C): 0.904
Thermofluor NLuc, No ATP (29.934 °C): 0.421
Thermofluor NLuc, ATP (29.934 °C): 0.9
Thermofluor NLuc, No ATP (30.927 °C): 0.383
Thermofluor NLuc, ATP (30.927 °C): 0.894
Thermofluor NLuc, No ATP (31.921 °C): 0.366
Thermofluor NLuc, ATP (31.921 °C): 0.886
Thermofluor NLuc, No ATP (32.914 °C): 0.333
Thermofluor NLuc, ATP (32.914 °C): 0.878
Thermofluor NLuc, No ATP (33.907 °C): 0.327
Thermofluor NLuc, ATP (33.907 °C): 0.87
Thermofluor NLuc, No ATP (34.901 °C): 0.309
Thermofluor NLuc, ATP (34.901 °C): 0.863
Thermofluor NLuc, No ATP (35.894 °C): 0.276
Thermofluor NLuc, ATP (35.894 °C): 0.856
Thermofluor NLuc, No ATP (36.887 °C): 0.231
Thermofluor NLuc, ATP (36.887 °C): 0.849
Thermofluor NLuc, No ATP (37.881 °C): 0.229
Thermofluor NLuc, ATP (37.881 °C): 0.841
Thermofluor NLuc, No ATP (38.874 °C): 0.176
Thermofluor NLuc, ATP (38.874 °C): 0.833
Thermofluor NLuc, No ATP (39.868 °C): 0.201
Thermofluor NLuc, ATP (39.868 °C): 0.827
Thermofluor NLuc, No ATP (40.861 °C): 0.184
Thermofluor NLuc, ATP (40.861 °C): 0.824
Thermofluor NLuc, No ATP (41.854 °C): 0.161
Thermofluor NLuc, ATP (41.854 °C): 0.821
Thermofluor NLuc, No ATP (42.848 °C): 0.108
Thermofluor NLuc, ATP (42.848 °C): 0.817
Thermofluor NLuc, No ATP (43.841 °C): 0.096
Thermofluor NLuc, ATP (43.841 °C): 0.812
Thermofluor NLuc, No ATP (44.835 °C): 0.098
Thermofluor NLuc, ATP (44.835 °C): 0.805
Thermofluor NLuc, No ATP (45.828 °C): 0.096
Thermofluor NLuc, ATP (45.828 °C): 0.794
Thermofluor NLuc, No ATP (46.821 °C): 0.034
Thermofluor NLuc, ATP (46.821 °C): 0.779
Thermofluor NLuc, No ATP (47.815 °C): 0.027
Thermofluor NLuc, ATP (47.815 °C): 0.76
Thermofluor NLuc, No ATP (48.808 °C): 0.048
Thermofluor NLuc, ATP (48.808 °C): 0.734
Thermofluor NLuc, No ATP (50.795 °C): 0.006
Thermofluor NLuc, ATP (50.795 °C): 0.656
Thermofluor NLuc, No ATP (51.788 °C): 0.009
Thermofluor NLuc, ATP (51.788 °C): 0.601
Thermofluor NLuc, No ATP (52.782 °C): 0
Thermofluor NLuc, ATP (52.782 °C): 0.533
Thermofluor NLuc, No ATP (53.775 °C): 0.03
Thermofluor NLuc, ATP (53.775 °C): 0.451
Thermofluor NLuc, No ATP (54.768 °C): 0.027
Thermofluor NLuc, ATP (54.768 °C): 0.357
Thermofluor NLuc, No ATP (55.762 °C): 0.051
Thermofluor NLuc, ATP (55.762 °C): 0.257
Thermofluor NLuc, No ATP (56.755 °C): 0.14
Thermofluor NLuc, ATP (56.755 °C): 0.161
Thermofluor NLuc, No ATP (57.748 °C): 0.19
Thermofluor NLuc, ATP (57.748 °C): 0.079
Thermofluor NLuc, No ATP (58.742 °C): 0.3
Thermofluor NLuc, ATP (58.742 °C): 0.022
Thermofluor NLuc, No ATP (59.735 °C): 0.413
Thermofluor NLuc, ATP (59.735 °C): 0
Thermofluor NLuc, No ATP (60.729 °C): 0.505
Thermofluor NLuc, ATP (60.729 °C): 0.015
Thermofluor NLuc, No ATP (61.722 °C): 0.61
Thermofluor NLuc, ATP (61.722 °C): 0.065
Thermofluor NLuc, No ATP (62.715 °C): 0.667
Thermofluor NLuc, ATP (62.715 °C): 0.143
Thermofluor NLuc, No ATP (63.709 °C): 0.726
Thermofluor NLuc, ATP (63.709 °C): 0.238
Thermofluor NLuc, No ATP (65.695 °C): 0.759
Thermofluor NLuc, ATP (65.695 °C): 0.437
Thermofluor NLuc, No ATP (66.689 °C): 0.785
Thermofluor NLuc, ATP (66.689 °C): 0.525
Thermofluor NLuc, No ATP (68.676 °C): 0.749
Thermofluor NLuc, ATP (68.676 °C): 0.658
Thermofluor NLuc, No ATP (69.669 °C): 0.746
Thermofluor NLuc, ATP (69.669 °C): 0.703
Thermofluor NLuc, No ATP (70.662 °C): 0.73
Thermofluor NLuc, ATP (70.662 °C): 0.736
Thermofluor NLuc, No ATP (71.656 °C): 0.72
Thermofluor NLuc, ATP (71.656 °C): 0.76
Thermofluor NLuc, No ATP (72.649 °C): 0.696
Thermofluor NLuc, ATP (72.649 °C): 0.778
Thermofluor NLuc, No ATP (73.643 °C): 0.686
Thermofluor NLuc, ATP (73.643 °C): 0.793
Thermofluor NLuc, No ATP (74.636 °C): 0.672
Thermofluor NLuc, ATP (74.636 °C): 0.807
Thermofluor NLuc, No ATP (75.629 °C): 0.623
Thermofluor NLuc, ATP (75.629 °C): 0.82
